{"source": "ChEMBL document CHEMBL1149512", "about": "“3-Aryl-4-hydroxyquinolin-2(1H)-one derivatives as type I fatty acid synthase inhibitors” (Bioorg Med Chem Lett, 2006)", "key": {"Fatty acid synthase [1]": {"target": "Fatty acid synthase (Rattus norvegicus, UniProt P12785)", "sequence (P12785 whole entry)": "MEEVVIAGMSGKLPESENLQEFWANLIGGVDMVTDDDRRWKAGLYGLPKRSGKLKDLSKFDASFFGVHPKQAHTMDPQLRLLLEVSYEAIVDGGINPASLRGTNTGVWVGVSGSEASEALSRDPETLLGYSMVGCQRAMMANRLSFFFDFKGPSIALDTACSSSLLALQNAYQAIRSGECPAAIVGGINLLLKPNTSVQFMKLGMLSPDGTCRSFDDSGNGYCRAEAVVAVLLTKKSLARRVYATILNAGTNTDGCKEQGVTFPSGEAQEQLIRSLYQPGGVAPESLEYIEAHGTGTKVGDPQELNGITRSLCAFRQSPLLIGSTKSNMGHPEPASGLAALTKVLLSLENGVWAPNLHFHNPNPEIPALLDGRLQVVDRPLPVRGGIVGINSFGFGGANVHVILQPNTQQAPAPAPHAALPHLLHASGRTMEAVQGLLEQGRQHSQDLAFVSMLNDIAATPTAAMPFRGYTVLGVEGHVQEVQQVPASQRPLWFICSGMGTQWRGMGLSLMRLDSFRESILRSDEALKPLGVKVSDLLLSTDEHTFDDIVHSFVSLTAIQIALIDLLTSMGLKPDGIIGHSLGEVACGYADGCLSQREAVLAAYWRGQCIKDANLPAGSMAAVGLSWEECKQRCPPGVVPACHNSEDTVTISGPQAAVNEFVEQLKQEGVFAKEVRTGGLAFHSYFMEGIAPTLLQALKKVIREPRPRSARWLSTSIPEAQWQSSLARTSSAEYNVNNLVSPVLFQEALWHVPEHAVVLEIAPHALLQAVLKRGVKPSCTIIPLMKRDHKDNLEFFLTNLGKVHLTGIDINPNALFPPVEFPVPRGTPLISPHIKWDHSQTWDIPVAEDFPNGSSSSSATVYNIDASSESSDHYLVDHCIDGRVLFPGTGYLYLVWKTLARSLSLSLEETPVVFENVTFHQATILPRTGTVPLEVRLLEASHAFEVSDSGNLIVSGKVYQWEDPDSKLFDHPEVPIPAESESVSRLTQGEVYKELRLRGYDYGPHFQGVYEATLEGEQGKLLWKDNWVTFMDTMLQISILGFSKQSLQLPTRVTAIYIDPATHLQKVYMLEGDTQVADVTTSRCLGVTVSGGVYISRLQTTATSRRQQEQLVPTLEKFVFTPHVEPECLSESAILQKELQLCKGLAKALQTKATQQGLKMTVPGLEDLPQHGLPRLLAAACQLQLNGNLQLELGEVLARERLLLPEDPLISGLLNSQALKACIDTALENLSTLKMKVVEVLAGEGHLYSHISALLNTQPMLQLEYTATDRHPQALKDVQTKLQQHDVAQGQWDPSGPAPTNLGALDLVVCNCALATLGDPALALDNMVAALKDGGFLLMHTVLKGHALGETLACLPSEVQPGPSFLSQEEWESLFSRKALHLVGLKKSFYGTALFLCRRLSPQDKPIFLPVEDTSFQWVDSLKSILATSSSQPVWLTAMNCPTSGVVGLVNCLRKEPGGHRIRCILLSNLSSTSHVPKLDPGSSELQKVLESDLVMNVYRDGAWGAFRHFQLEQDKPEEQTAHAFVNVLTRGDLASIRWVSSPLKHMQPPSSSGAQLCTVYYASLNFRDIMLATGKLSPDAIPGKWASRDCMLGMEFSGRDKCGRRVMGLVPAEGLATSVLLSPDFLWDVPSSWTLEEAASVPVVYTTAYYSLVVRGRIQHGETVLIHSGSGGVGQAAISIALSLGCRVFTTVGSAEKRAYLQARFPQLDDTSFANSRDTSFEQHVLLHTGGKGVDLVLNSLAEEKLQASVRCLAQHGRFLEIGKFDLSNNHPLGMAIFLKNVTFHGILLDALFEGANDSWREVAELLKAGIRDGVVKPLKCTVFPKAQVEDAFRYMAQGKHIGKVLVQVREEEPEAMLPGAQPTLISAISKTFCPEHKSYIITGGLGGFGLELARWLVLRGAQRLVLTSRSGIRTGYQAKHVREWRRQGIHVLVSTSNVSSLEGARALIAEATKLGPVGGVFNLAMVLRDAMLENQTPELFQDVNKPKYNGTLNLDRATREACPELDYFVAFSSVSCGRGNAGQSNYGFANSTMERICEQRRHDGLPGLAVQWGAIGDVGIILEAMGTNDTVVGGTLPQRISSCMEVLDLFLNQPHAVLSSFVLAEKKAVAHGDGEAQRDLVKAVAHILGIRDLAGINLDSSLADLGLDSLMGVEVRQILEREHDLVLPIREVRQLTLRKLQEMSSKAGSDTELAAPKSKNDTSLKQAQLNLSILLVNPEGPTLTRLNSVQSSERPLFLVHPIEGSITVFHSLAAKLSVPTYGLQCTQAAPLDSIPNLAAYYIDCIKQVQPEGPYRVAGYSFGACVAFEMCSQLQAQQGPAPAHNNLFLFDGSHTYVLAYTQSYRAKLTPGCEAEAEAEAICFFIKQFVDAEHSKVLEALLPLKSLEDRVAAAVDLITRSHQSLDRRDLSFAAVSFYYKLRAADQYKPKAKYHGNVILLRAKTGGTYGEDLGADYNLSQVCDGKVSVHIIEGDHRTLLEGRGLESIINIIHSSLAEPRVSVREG", "experiment": "Inhibition of rat FAS"}, "Fatty acid synthase [2]": {"target": "Fatty acid synthase (Homo sapiens, UniProt P49327)", "sequence (P49327 whole entry)": "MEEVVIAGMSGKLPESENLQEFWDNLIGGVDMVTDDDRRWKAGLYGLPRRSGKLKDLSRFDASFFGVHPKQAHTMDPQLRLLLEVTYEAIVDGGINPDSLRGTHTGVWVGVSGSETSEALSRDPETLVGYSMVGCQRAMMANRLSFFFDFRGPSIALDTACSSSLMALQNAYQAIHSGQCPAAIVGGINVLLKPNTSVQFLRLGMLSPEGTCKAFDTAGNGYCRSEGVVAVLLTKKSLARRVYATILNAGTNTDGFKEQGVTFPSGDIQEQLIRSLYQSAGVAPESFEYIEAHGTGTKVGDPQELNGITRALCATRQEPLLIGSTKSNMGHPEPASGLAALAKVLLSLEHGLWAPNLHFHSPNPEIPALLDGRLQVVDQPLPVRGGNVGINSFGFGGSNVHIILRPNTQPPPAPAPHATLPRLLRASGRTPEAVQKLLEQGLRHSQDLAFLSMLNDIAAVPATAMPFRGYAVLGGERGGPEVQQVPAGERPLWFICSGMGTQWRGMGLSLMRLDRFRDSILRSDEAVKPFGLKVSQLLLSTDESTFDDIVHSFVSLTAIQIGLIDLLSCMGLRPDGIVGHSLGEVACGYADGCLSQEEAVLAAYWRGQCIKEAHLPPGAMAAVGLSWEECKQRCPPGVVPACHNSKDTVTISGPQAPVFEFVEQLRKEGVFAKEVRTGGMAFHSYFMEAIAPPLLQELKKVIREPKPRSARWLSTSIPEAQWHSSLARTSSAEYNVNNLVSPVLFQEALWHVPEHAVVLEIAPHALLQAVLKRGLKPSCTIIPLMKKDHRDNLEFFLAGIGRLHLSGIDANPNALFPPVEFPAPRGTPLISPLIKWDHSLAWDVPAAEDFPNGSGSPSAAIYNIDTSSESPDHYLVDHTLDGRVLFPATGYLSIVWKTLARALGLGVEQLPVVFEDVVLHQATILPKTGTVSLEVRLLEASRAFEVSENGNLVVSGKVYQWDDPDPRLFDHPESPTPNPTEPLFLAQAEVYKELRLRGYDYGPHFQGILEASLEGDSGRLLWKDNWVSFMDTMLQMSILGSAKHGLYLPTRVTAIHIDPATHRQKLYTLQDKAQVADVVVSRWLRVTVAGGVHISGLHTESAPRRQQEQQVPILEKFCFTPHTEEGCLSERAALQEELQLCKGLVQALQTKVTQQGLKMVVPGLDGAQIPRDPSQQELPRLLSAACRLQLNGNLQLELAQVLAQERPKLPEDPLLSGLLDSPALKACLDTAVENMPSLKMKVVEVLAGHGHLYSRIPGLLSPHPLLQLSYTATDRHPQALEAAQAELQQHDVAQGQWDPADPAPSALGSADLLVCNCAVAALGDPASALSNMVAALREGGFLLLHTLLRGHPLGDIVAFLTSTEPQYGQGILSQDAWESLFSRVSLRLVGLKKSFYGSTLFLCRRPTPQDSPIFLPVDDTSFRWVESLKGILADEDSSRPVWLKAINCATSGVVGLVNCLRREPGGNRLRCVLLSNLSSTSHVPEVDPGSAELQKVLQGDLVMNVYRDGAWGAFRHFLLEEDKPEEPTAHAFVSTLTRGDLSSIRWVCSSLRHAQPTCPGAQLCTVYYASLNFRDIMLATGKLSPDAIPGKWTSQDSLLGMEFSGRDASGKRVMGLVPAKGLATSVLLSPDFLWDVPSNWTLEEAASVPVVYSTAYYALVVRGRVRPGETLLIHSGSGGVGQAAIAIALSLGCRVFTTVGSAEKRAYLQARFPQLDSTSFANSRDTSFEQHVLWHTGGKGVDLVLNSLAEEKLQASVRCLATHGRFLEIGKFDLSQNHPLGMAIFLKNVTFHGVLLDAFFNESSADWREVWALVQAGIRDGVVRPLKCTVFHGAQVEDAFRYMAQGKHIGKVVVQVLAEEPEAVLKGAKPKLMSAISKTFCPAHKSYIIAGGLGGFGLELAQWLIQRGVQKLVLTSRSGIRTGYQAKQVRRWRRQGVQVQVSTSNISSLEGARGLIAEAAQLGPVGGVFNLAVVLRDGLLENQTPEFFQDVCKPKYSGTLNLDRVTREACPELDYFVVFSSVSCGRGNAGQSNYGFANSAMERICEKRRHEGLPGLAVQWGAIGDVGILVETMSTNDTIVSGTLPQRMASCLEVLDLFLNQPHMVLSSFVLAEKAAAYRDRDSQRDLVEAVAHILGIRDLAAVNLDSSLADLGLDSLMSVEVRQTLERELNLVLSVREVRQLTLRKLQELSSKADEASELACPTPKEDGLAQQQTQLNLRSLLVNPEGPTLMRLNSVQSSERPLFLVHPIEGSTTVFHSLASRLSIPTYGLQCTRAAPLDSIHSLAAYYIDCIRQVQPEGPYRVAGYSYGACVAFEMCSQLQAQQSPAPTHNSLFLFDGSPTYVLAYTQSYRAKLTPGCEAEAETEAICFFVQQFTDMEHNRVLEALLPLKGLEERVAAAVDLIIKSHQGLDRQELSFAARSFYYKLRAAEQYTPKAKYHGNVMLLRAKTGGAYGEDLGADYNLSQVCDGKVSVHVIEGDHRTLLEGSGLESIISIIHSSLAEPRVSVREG", "experiment": "Inhibition of human FAS"}}, "data": [{"smiles": "O=c1[nH]c2cc(Cl)c([N+](=O)[O-])cc2c(O)c1-c1cccs1", "values": [{"measurement": "IC50", "setting": "Fatty acid synthase [1]", "result": 700, "unit": "nM"}]}, {"smiles": "N#Cc1cc2c(O)c(-c3cccc(-c4ccc5ccccc5c4)c3)c(=O)[nH]c2cc1Cl", "values": [{"measurement": "IC50", "setting": "Fatty acid synthase [2]", "result": 127, "unit": "nM"}]}, {"smiles": "Cn1cc(-c2cccc(-c3c(O)c4cc(C#N)c(Cl)cc4[nH]c3=O)c2)cn1", "values": [{"measurement": "IC50", "setting": "Fatty acid synthase [2]", "result": 734, "unit": "nM"}]}, {"smiles": "O=c1[nH]c2cc(Cl)c([N+](=O)[O-])cc2c(O)c1-c1nnn[nH]1", "values": [{"measurement": "IC50", "setting": "Fatty acid synthase [1]", "result": 2600, "unit": "nM"}]}, {"smiles": "N#Cc1cc(Cl)c2[nH]c(=O)c(-c3ccccc3)c(O)c2c1", "values": [{"measurement": "IC50", "setting": "Fatty acid synthase [2]", "result": 402, "unit": "nM"}]}, {"smiles": "N#Cc1cc2c(C#N)c(-c3ccccc3)c(=O)[nH]c2cc1Cl", "values": [{"measurement": "IC50", "setting": "Fatty acid synthase [2]", "result": "> 15000", "unit": "nM"}]}, {"smiles": "O=c1[nH]c2cc(Cl)c([N+](=O)[O-])cc2c(O)c1-c1ccc2ccccc2c1", "values": [{"measurement": "IC50", "setting": "Fatty acid synthase [1]", "result": 6000, "unit": "nM"}]}, {"smiles": "CS(=O)(=O)c1ccc2[nH]c(=O)c(-c3ccccc3)c(O)c2c1", "values": [{"measurement": "IC50", "setting": "Fatty acid synthase [1]", "result": "> 15000", "unit": "nM"}, {"measurement": "IC50", "setting": "Fatty acid synthase [2]", "result": "> 15000", "unit": "nM"}]}, {"smiles": "O=c1[nH]c2ccc(C(F)(F)F)cc2c(O)c1-c1ccccc1", "values": [{"measurement": "IC50", "setting": "Fatty acid synthase [1]", "result": "> 15000", "unit": "nM"}, {"measurement": "IC50", "setting": "Fatty acid synthase [2]", "result": "> 15000", "unit": "nM"}]}, {"smiles": "N#Cc1cc2c(O)c(-c3ccccc3)c(=O)[nH]c2cc1Cl", "values": [{"measurement": "IC50", "setting": "Fatty acid synthase [2]", "result": 136, "unit": "nM"}]}, {"smiles": "O=c1[nH]c2cc(Cl)c([N+](=O)[O-])cc2c(O)c1-c1ccc(-c2ccccc2)cc1", "values": [{"measurement": "IC50", "setting": "Fatty acid synthase [1]", "result": 122, "unit": "nM"}]}, {"smiles": "O=c1[nH]c2cc(Cl)c([N+](=O)[O-])cc2c(O)c1-c1cc(Cl)cc(Cl)c1", "values": [{"measurement": "IC50", "setting": "Fatty acid synthase [1]", "result": 134, "unit": "nM"}]}, {"smiles": "N#Cc1ccc2[nH]c(=O)c(-c3ccccc3)c(O)c2c1", "values": [{"measurement": "IC50", "setting": "Fatty acid synthase [2]", "result": 1290, "unit": "nM"}]}, {"smiles": "O=c1[nH]c2cc(F)c([N+](=O)[O-])cc2c(O)c1-c1ccccc1", "values": [{"measurement": "IC50", "setting": "Fatty acid synthase [1]", "result": 50, "unit": "nM"}]}, {"smiles": "O=c1[nH]c2cc(Cl)c([N+](=O)[O-])cc2c(O)c1-c1ccccc1", "values": [{"measurement": "IC50", "setting": "Fatty acid synthase [1]", "result": 73, "unit": "nM"}, {"measurement": "IC50", "setting": "Fatty acid synthase [2]", "result": 207, "unit": "nM"}]}, {"smiles": "N#Cc1cc2c(O)c(-c3cccc(-c4cc(F)cc(F)c4)c3)c(=O)[nH]c2cc1Cl", "values": [{"measurement": "IC50", "setting": "Fatty acid synthase [2]", "result": 728, "unit": "nM"}]}, {"smiles": "O=c1cc(O)c2cc([N+](=O)[O-])ccc2[nH]1", "values": [{"measurement": "IC50", "setting": "Fatty acid synthase [1]", "result": "> 15000", "unit": "nM"}]}, {"smiles": "N#Cc1cc2c(O)c(-c3cccc(-c4csc5ccccc45)c3)c(=O)[nH]c2cc1Cl", "values": [{"measurement": "IC50", "setting": "Fatty acid synthase [2]", "result": 101, "unit": "nM"}]}, {"smiles": "N#Cc1cc2c(N)c(-c3ccccc3)c(O)nc2cc1Cl", "values": [{"measurement": "IC50", "setting": "Fatty acid synthase [2]", "result": "> 15000", "unit": "nM"}]}, {"smiles": "O=c1[nH]c2cc(Cl)c([N+](=O)[O-])cc2c(O)c1-c1cc(F)cc(F)c1", "values": [{"measurement": "IC50", "setting": "Fatty acid synthase [1]", "result": 172, "unit": "nM"}]}, {"smiles": "O=c1[nH]c2ccc(S(=O)(=O)C(F)(F)F)cc2c(O)c1-c1ccccc1", "values": [{"measurement": "IC50", "setting": "Fatty acid synthase [1]", "result": "> 15000", "unit": "nM"}, {"measurement": "IC50", "setting": "Fatty acid synthase [2]", "result": "> 15000", "unit": "nM"}]}, {"smiles": "N#Cc1cc2c(O)c(-c3cccc(-c4ccc(F)c(F)c4)c3)c(=O)[nH]c2cc1Cl", "values": [{"measurement": "IC50", "setting": "Fatty acid synthase [2]", "result": 68, "unit": "nM"}]}, {"smiles": "O=c1[nH]c2c([N+](=O)[O-])cccc2c(O)c1-c1ccccc1", "values": [{"measurement": "IC50", "setting": "Fatty acid synthase [1]", "result": 3000, "unit": "nM"}]}, {"smiles": "CS(=O)(=O)c1cccc(-c2c(O)c3cc(C#N)c(Cl)cc3[nH]c2=O)c1", "values": [{"measurement": "IC50", "setting": "Fatty acid synthase [2]", "result": 4160, "unit": "nM"}]}, {"smiles": "Cc1cc(-c2c(O)c3cc([N+](=O)[O-])c(Cl)cc3[nH]c2=O)on1", "values": [{"measurement": "IC50", "setting": "Fatty acid synthase [1]", "result": 3400, "unit": "nM"}]}, {"smiles": "N#Cc1cc2c(O)c(-c3cccc(-c4cccnc4)c3)c(=O)[nH]c2cc1Cl", "values": [{"measurement": "IC50", "setting": "Fatty acid synthase [2]", "result": 194, "unit": "nM"}]}, {"smiles": "COc1ccc(CNc2c(-c3ccccc3)c(=O)[nH]c3cc(Cl)c(C#N)cc23)cc1", "values": [{"measurement": "IC50", "setting": "Fatty acid synthase [2]", "result": "> 15000", "unit": "nM"}]}, {"smiles": "O=c1[nH]c2ccccc2c(O)c1-c1ccccc1", "values": [{"measurement": "IC50", "setting": "Fatty acid synthase [1]", "result": "> 15000", "unit": "nM"}]}, {"smiles": "O=c1[nH]c2ccc([N+](=O)[O-])cc2c(O)c1-c1ccccc1", "values": [{"measurement": "IC50", "setting": "Fatty acid synthase [1]", "result": 550, "unit": "nM"}, {"measurement": "IC50", "setting": "Fatty acid synthase [2]", "result": 1400, "unit": "nM"}]}, {"smiles": "COc1ccccc1-c1cccc(-c2c(O)c3cc(C#N)c(Cl)cc3[nH]c2=O)c1", "values": [{"measurement": "IC50", "setting": "Fatty acid synthase [2]", "result": 19, "unit": "nM"}]}, {"smiles": "N#Cc1cc2c(O)c(-c3cccc(-c4ccccc4)c3)c(=O)[nH]c2cc1Cl", "values": [{"measurement": "IC50", "setting": "Fatty acid synthase [2]", "result": 52, "unit": "nM"}]}, {"smiles": "O=C(O)c1ccc2[nH]c(=O)c(-c3ccccc3)c(O)c2c1", "values": [{"measurement": "IC50", "setting": "Fatty acid synthase [1]", "result": "> 15000", "unit": "nM"}]}, {"smiles": "N#Cc1cc2c(Cl)c(-c3ccccc3)c(=O)[nH]c2cc1Cl", "values": [{"measurement": "IC50", "setting": "Fatty acid synthase [2]", "result": "> 15000", "unit": "nM"}]}, {"smiles": "O=c1[nH]c2cc(Cl)c([N+](=O)[O-])cc2c(O)c1-c1ccc(OCc2ccccc2)cc1", "values": [{"measurement": "IC50", "setting": "Fatty acid synthase [1]", "result": 86, "unit": "nM"}]}, {"smiles": "O=c1[nH]c2cc(Cl)c([N+](=O)[O-])cc2c(O)c1-c1ccc(Cl)cc1Cl", "values": [{"measurement": "IC50", "setting": "Fatty acid synthase [1]", "result": 443, "unit": "nM"}]}, {"smiles": "N#Cc1cc2c(NCc3ccccc3)c(-c3ccccc3)c(=O)[nH]c2cc1Cl", "values": [{"measurement": "IC50", "setting": "Fatty acid synthase [2]", "result": "> 15000", "unit": "nM"}]}, {"smiles": "N#Cc1cc2c(O)c(-c3cccc(-c4ccc(F)cc4)c3)c(=O)[nH]c2cc1Cl", "values": [{"measurement": "IC50", "setting": "Fatty acid synthase [2]", "result": 54, "unit": "nM"}]}, {"smiles": "N#Cc1cc2c(Br)c(-c3ccccc3)c(O)nc2cc1Cl", "values": [{"measurement": "IC50", "setting": "Fatty acid synthase [2]", "result": "> 15000", "unit": "nM"}]}, {"smiles": "O=c1[nH]c2cc(Cl)c([N+](=O)[O-])cc2c(O)c1-c1ccc(F)cc1F", "values": [{"measurement": "IC50", "setting": "Fatty acid synthase [1]", "result": 173, "unit": "nM"}]}]}
